From article PMC8273083 (ACS infectious diseases, 2021) come the findings set out here.

Structures are written as SMILES.

Assay [1] addresses TgDHOD-VSSM (Toxoplasma gondii, UniProt Q8MXD1). In words: TgDHOD inhibition. The assay is classed as biochemical.
Assay [2] has as its system RH-strain T. gondii. In words: T. gondii growth inhibition, RH strain. Particulars: Toxoplasma gondii, read-out: EC50 vs RH (nM). It counts as cell-based.
Assay [3] deals with T222P strain of T. gondii. In words: microbe, parasite or virus in culture. The assay is classed as cell-based, Toxoplasma gondii.
Assay [4] relates to RH-strain T. gondii tachyzoites. The assay can be described thus: In vivo efficacy, murine model of systemic. The settings on record: 20 mg/kg orally once daily, in words. On the set-up: species or system CF-1 mice.

What is called Ki is a dissociation constant, usually derived from enzyme kinetics or from competition with a known ligand. A higher Ki goes with lower affinity. In assay [1], `O=C1C(O)=C([C@H]2CC[C@H](c3ccc(Cl)cc3)CC2)C(=O)c2ccccc21` [ATV, atovaquone] registered a Ki of 2720 nM. In other words, the single-digit micromolar range.

A word on the EC50: it is the concentration that produces a half-maximal response. On to `COc1cc2[nH]c3cc(Oc4ccc(OC(F)(F)F)cc4)ccc3c(=O)c2cc1F` [Compound 27], for which the EC50 came to 0.63 nM in assay [2] and 5.61 nM in assay [3] (Toxoplasma gondii, read-out: EC50 vs T222P (nM)). Further, the “effect of the T222P mutation on potency” value in assay [3] (T222P versus RH strain, in words) is “confers resistance”.

On to `CCc1nc(N)nc(N)c1-c1ccc(Cl)cc1` [pyrimethamine], for which the survival benefit result in assay [4] was “no survival benefit”.
